Activity calls are given as the source filed them. The rule behind the calls is not given here.
How the values were obtained:
Format in all cases: functional, cell-based
[1] = test system: RAW264.7; test: Antiinflammatory activity in mouse RAW264.7 cells assessed as inhibition of LPS-induced COX2 mRNA expression at 10 uM preincubated for 30 mins followed by LPS-stimulation and measured after 18 hrs by QuantiFast SYBR Green dye based RT-PCR analysis
[2] = test system: RAW264.7; test: Antiinflammatory activity in mouse RAW264.7 cells assessed as inhibition of LPS-induced COX2 mRNA expression preincubated for 30 mins followed by LPS-stimulation and measured after 18 hrs by QuantiFast SYBR Green dye based RT-PCR analysis
[3] = test system: RAW264.7; test: Antiinflammatory activity in mouse RAW264.7 cells assessed as inhibition of LPS-induced COX2 expression at 1 to 10 uM preincubated for 30 mins followed by LPS-stimulation and measured after 18 hrs by Western blot analysis
[4] = test system: RAW264.7; test: Antiinflammatory activity in mouse RAW264.7 cells assessed as inhibition of LPS-induced PGE2 formation preincubated for 30 mins followed by LPS-stimulation and measured after 18 hrs by ELISA
[5] = test system: RAW264.7; test: Antiinflammatory activity in mouse RAW264.7 cells assessed as inhibition of LPS-induced COX2 mRNA expression at 50 uM preincubated for 30 mins followed by LPS-stimulation and measured after 18 hrs by QuantiFast SYBR Green dye based RT-PCR analysis

Compound | inhibition [1] | inhibition [2] | inhibition [3] | inhibition [4] | inhibition [5]
CC(C)[C@@H](O)[C@H]1CC[C@@]2(C)[C@@H]1[C@]1(C)CC[C@H]2O1 | Active | Dose-dependent effect | Active | Dose-dependent effect | –
Cc1cnc(NC(=O)C2=C(O)c3ccccc3S(=O)(=O)N2C)s1 | – | – | – | – | Active
CC1(C)[C@H]2[C@H]3[C@@H](CC[C@]3(C)O)[C@](C)(O)CC[C@H]21 | Active | Dose-dependent effect | Active | – | –
C[C@@H]1CC[C@H]2[C@@H]1[C@H]1[C@@H](CC[C@@]2(C)O)C1(C)C | Active | Dose-dependent effect | Active | – | –
